Results as given in patent US6063777A, “Iminochlorinaspartic acid derivatives” (Wyeth Lederle Japan, Ltd., priority 1996, dated 2000).

How the values were obtained:
[1] = test system: colon cancer Colon 26; assay: Laser irradiation to extirpated organ: distribution (cancer/organ ratio) by surface fluorescence, N2-pulsed laser, mice bearing Colon 26; assay type: in vivo, CDF1 mice; settings: for Cancer/Brain ratio / Cancer/Kidney ratio / Cancer/Liver ratio / Cancer/Lung ratio / Cancer/Muscle ratio: sodium salt, 10 mg/kg intravenous
Experimental: CDF1 mice (5 per group) were implanted with tumor tissues of colon cancer Colon 26. Two weeks after the implantation, the mice were given an intravenous injection of sodium salt of each of compounds (I) and (II) (10 mg/kg for each mouse) which had been diluted with a distilled water for injection. At 3 hrs, 6 hrs and 12 hrs after the injection, the blood samples were collected and the organs bearing the tumor tissue were extirpated, irradiated with N2 -pulsed laser (N2, wavelength: 337 nm, 2 ns), and the excited fluorescent spectrum was measured. The wavelengths in the range of 600 to 900 nm were examined based on the peak wavelength of NADH at 470 nm (determination of the distribution of the test compound in the organ by the surface fluorescence method using N2 -pulsed laser spectrophotometry). That is, cancer/organ (or plasma) ratio was determined by calculating the peak wavelength in the range of 600 to 900 nm when the peak wavelength at 470 nm was considered as the basic value, 1.

[2] = test system: HeLa cells; assay: HeLa cell survival after diode laser (670 nm) irradiation, MTS-PMS reagent; assay type: cell-based
Experimental: HeLa cells were seeded in wells of a 96-well plate each containing 100 μl of a culture medium at 5×10^3 /well, and incubated at 37° C. overnight. In each well, the culture medium was removed, and 100 μl of a solution containing sodium salt of either of compound (I) or compound (II) in concentrations of 0, 6.25, 12.5, 25, 50 and 100 μM/ml was added (3 wells for each group of the concentrations) and incubated at 37° C. at for 6 hrs. Each well was washed with PBS(-) once, and then 100 μl of a fresh medium was added. The wells were irradiated using a diode laser (670 nm) under the conditions of 0.44W of laser intensity, 0.785 cm^2 of irradiation area (diameter: 1 cm) and 25 J/cm^2 of laser energy. After the irradiation, each well was incubated at 37° C. overnight and washed with PBS(-) once, then 100 μl of a fresh medium was added. To each well was added 20 μl of MTS-PMS reagent, and the well was further incubated at 37° C. for 2-4 hrs. The absorbance of each well at 492 nm was measured using a microplate reader. The cell survival rate at each of the above mentioned concentrations of the test compound was calculated considering the value for the well of 0 μM/ml of the test compound as 100%.

[3] = test system: choriocapillaris; assay: Occlusion of choriocapillaris by PDT, histological findings 24 hours after laser irradiation; assay type: in vivo, rats (Long Evance Rats); settings: 16 mg/kg
Experimental: The following experiments were performed to investigate the optimal treatment parameters (timing of laser irradiation after dosing of the compound; laser irradiation dosage) for selective occlusion of choroidal neoplastic vessels by PDT using the compound of the present invention and a diode laser (produced by Hamamatsu Photonics; wavelength: 672 nm).
Photocoagulation was induced in rats (Long Evance Rats weighing 200-300 g) by Argon green laser irradiation (irradiation diameter: 100 μm, 140 mW, 0.1 sec) near the retinal papilla on funduc oculi. Ten days after photocoagulation, fundus photographs and fluorescein angiographs were taken and the animals showing development of choroidal neovascularization were used for experiments at the 11th day.
The compound of the present invention was administered via the tail vein at a dose of 16 mg/kg. After administration, time course distribution of the compound in the eyeball tissues was observed by fluorescence microscopy.
Laser irradiation was done by using the above-mentioned diode laser. The laser beam was confirmed to extend in the range of 500 μm in diameter on the retinal surface. Duration of irradiation was 4 minutes and the irradiation intensity varied at 30.6, 91.7, 152.9 and 244.9 mW/cm^2 on the retinal surface. These values correspond to 7.4, 22.0, 36.7 and 58.8 J/cm^2, respectively.
Assessment of the PDT using the compound of the present invention was made based on the fundus photographs taken with a fundus camera (produced by Jenesis Kowa) at 1 hour and 24 hours after laser irradiation. Occlusion of the neoplastic vessels and damage to the surrounding tissues were investigated by fluorescein antiography and histological examinations to assess the selectivity of the therapeutic effect.

[4] = Preliminary experiments: blood half-life after intravenous administration; assay type: in vivo; settings: rats and rabbits
[5] = Dancyl methionine test (photoreactivity by TLC or HPLC)
Excerpt: When compound (I) was examined by albumin test [that is, a convenient test method for evaluating the affinity to cancerous tissues, in which a chlorin derivative is examined on the change in ultraviolet (UV) absorption spectrum in a mixture form with albumin and in which one of the present inventors has found a certain rule] and dancyl methionine test [that is, a convenient test method for evaluating the strength of the photoreactivity by thin layer chromatography (TLC) or high performance liquid chromatography (HPLC)]

Cancer/Brain ratio ([1]; 3 hr): 11.24
Cancer/Kidney ratio ([1]; 3 hr): 1.54
Cancer/Liver ratio ([1]; 3 hr): 1.35
Cancer/Lung ratio ([1]; 3 hr): 5.02
Cancer/Muscle ratio ([1]; 3 hr): 4.19
Cancer/Brain ratio ([1]; 6 hr): 15.14
Cancer/Kidney ratio ([1]; 6 hr): 1.36
Cancer/Liver ratio ([1]; 6 hr): 2.02
Cancer/Lung ratio ([1]; 6 hr): 7.85
Cancer/Muscle ratio ([1]; 6 hr): 3.72
Cancer/Brain ratio ([1]; 12 hr): 15.0
Cancer/Kidney ratio ([1]; 12 hr): 1.27
Cancer/Liver ratio ([1]; 12 hr): 0.92
Cancer/Lung ratio ([1]; 12 hr): 6.45
Cancer/Muscle ratio ([1]; 12 hr): 4.73
compound in blood ([4]; after 24 hours, intravenous): undetectable in blood after 24 hours
half-life ([4]; blood, intravenous administration): 30 min
SMILES: C=Cc1c(C)c2cc3nc(cc4[nH]c(cc5nc(cc1[nH]2)C(C)=C5CCC(=O)NC(CC(=O)O)C(=O)O)c(CCC(=O)NC(CC(=O)O)C(=O)O)c4C)C(C)(O)C3=CC=NO (stereo not shown) [Compound (I)]
accumulability to cancerous tissues ([1]; compared with position isomer): much higher accumulability to cancerous tissues as compared with its position isomer
cell destructing effect induced by a photosensitizing reaction [2]: strong cell destructing effect induced by a photosensitizing reaction
viability at 6.25 µM ([2]; Homo sapiens, HeLa, light or radiation study, 6.25 μM, sodium salt, 6 hrs, 670 nm, 25 J/cm^2, read-out: Cell Survival Rate): 43%
viability at 12.5 µM ([2]; Homo sapiens, HeLa, light or radiation study, 12.5 μM, sodium salt, 6 hrs, 670 nm, 25 J/cm^2, read-out: Cell Survival Rate): 19%
viability at 25 µM ([2]; Homo sapiens, HeLa, light or radiation study, 25 μM, sodium salt, 6 hrs, 670 nm, 25 J/cm^2, read-out: Cell Survival Rate): 13%
viability at 50 µM ([2]; Homo sapiens, HeLa, light or radiation study, 50 μM, sodium salt, 6 hrs, 670 nm, 25 J/cm^2, read-out: Cell Survival Rate): 10%
viability at 100 µM ([2]; Homo sapiens, HeLa, light or radiation study, 100 μM, sodium salt, 6 hrs, 670 nm, 25 J/cm^2, read-out: Cell Survival Rate): 10%
cell killing effect against tumor cells ([2]; compared with position isomer): remarkably higher cell killing effect against tumor cells compared with the position isomer
Occlusion of choriocapillaris ([3]; 7.4 J/cm^2, irradiation 60 min after administration): Closed
Occlusion of choriocapillaris ([3]; 7.4 J/cm^2, irradiation 120 min after administration): Open
Occlusion of choriocapillaris ([3]; 7.4 J/cm^2, irradiation 240 min after administration): Open
Occlusion of choriocapillaris ([3]; 7.4 J/cm^2, irradiation immediately after administration): Closed
Occlusion of choriocapillaris ([3]; 22.0 J/cm^2, irradiation 60 min after administration): Closed
Occlusion of choriocapillaris ([3]; 22.0 J/cm^2, irradiation 120 min after administration): Closed
Occlusion of choriocapillaris ([3]; 22.0 J/cm^2, irradiation 240 min after administration): Closed
Occlusion of choriocapillaris ([3]; 22.0 J/cm^2, irradiation immediately after administration): Closed
Occlusion of choriocapillaris ([3]; 36.7 J/cm^2, irradiation 60 min after administration): Closed
Occlusion of choriocapillaris ([3]; 36.7 J/cm^2, irradiation 120 min after administration): Closed
Occlusion of choriocapillaris ([3]; 36.7 J/cm^2, irradiation 240 min after administration): Closed
Occlusion of choriocapillaris ([3]; 36.7 J/cm^2, irradiation immediately after administration): Closed
Occlusion of choriocapillaris ([3]; 58.8 J/cm^2, irradiation 60 min after administration): Closed
Occlusion of choriocapillaris ([3]; 58.8 J/cm^2, irradiation 120 min after administration): Closed
Occlusion of choriocapillaris ([3]; 58.8 J/cm^2, irradiation 240 min after administration): Closed
Occlusion of choriocapillaris ([3]; 58.8 J/cm^2, irradiation immediately after administration): Closed
photosensitivity (dancyl methionine test) [5]: strong photosensitivity
cell killing effect when exposed to light ([5]; dancyl methionine test): good cell killing effect when exposed to light
